# From PMC10882719 (Frontiers in Neuroscience, 2024)
# Where two headings read alike, the source gives them in different places.
# Columns and labels:
# Format in all cases: cell-based
# 5HT2A receptor = molecular target: T1, 5HT2A receptor (Homo sapiens, UniProt P28223); test: GPCRmax screen, antagonist mode, 5HT2A; conditions: HTR2A
# T1 construct: β-galactosidase enzyme fragment (enzyme fragment complementation reporter); host or cells: PathHunter cell lines
# Protocol: Studies were performed at Eurofins DiscoverX Corporation (Fremont, CA) using the GPCRmax assay according to the manufacturer’s protocols. […] Activity greater than 30% typically indicates agonist activity and inhibition greater than 50% indicates antagonist activity. This assay uses enzyme fragment complementation with […] as the functional reporter. When a GPCR is activated, […] is recruited and the reporter is detectable. GPCRmax offers a high-throughput screen of 168 GPCRs for agonist or antagonist activity. Briefly, PathHunter cell lines were propagated, seeded into 384-well microplates and incubated at 37°C. […] Microplates were read following signal generation with a PerkinElmer Envision™ instrument for chemiluminescent signal detection. Compound activity was analyzed using CBIS data analysis suite (ChemInnovation, CA) to determine raw values (RLU). For agonist mode assay, percentage activity was calculated using the following formula: % Activity =100% × (mean RLU of test sample - mean RLU of vehicle control) / (mean MAX control ligand - mean RLU of vehicle control). For antagonist mode assay, percentage inhibition was calculated using the following formula: % Inhibition =100% × (1 - (mean RLU of test sample - mean RLU of vehicle control) / (mean RLU of EC80 control - mean RLU of vehicle control)).
# 168 GPCRs [1] = molecular target: T2, 168 GPCRs (Homo sapiens, UniProt P43116); conditions: PTGER2
# T2 construct: host or cells: PathHunter cell lines
# 168 GPCRs [2] = molecular target: T3, 168 GPCRs (Homo sapiens, UniProt Q9GZQ6); conditions: NPFFR1
# T3 construct: host or cells: PathHunter cell lines
# 168 GPCRs [3] = molecular target: T4, 168 GPCRs (Homo sapiens, UniProt P25103); conditions: TACR1
# T4 construct: host or cells: PathHunter cell lines
# 168 GPCRs [4] = molecular target: T5, 168 GPCRs (Homo sapiens, UniProt P41597)
# T5 construct: host or cells: PathHunter cell lines
# 168 GPCRs [5] = molecular target: T6, 168 GPCRs (Homo sapiens, UniProt P32247)
# T6 construct: host or cells: PathHunter cell lines
# T6 sequence (P32247 1-399): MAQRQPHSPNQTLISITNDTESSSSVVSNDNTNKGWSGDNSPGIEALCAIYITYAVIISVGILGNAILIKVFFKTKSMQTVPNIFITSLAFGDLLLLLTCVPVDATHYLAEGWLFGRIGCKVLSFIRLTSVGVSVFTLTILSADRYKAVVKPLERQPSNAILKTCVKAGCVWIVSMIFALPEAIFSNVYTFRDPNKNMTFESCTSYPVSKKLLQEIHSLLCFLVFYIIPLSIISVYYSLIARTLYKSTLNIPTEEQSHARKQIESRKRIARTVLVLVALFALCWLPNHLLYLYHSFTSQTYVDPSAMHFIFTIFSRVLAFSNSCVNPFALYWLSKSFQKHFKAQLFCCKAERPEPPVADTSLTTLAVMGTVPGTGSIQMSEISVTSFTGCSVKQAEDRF
# 168 GPCRs [6] = molecular target: T7, 168 GPCRs (Homo sapiens, UniProt P41231); conditions: P2RY2
# T7 construct: host or cells: PathHunter cell lines
# 168 GPCRs [7] = molecular target: T8, 168 GPCRs (Homo sapiens, UniProt P46091)
# T8 construct: host or cells: PathHunter cell lines
# T8 sequence (P46091 1-355): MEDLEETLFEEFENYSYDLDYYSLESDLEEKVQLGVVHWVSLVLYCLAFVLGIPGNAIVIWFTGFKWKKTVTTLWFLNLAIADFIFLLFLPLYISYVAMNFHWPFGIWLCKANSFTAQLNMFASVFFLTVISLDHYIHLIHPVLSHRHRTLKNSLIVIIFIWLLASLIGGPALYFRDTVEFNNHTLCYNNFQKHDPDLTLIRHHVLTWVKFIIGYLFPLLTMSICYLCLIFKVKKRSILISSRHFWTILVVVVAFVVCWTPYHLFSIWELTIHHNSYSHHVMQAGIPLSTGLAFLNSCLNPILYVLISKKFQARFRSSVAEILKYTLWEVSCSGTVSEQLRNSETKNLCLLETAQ
# T2 sequence (P43116 whole entry): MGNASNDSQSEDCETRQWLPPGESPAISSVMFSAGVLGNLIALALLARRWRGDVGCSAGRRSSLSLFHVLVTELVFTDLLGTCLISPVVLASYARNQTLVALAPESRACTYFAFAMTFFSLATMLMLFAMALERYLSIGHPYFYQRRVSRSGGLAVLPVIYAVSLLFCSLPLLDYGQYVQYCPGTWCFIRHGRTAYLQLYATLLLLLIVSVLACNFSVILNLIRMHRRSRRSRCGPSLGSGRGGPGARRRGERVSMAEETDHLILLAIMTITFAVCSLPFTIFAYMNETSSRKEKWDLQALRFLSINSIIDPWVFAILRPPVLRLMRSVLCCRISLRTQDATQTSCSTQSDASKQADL
# T3 sequence (Q9GZQ6 whole entry): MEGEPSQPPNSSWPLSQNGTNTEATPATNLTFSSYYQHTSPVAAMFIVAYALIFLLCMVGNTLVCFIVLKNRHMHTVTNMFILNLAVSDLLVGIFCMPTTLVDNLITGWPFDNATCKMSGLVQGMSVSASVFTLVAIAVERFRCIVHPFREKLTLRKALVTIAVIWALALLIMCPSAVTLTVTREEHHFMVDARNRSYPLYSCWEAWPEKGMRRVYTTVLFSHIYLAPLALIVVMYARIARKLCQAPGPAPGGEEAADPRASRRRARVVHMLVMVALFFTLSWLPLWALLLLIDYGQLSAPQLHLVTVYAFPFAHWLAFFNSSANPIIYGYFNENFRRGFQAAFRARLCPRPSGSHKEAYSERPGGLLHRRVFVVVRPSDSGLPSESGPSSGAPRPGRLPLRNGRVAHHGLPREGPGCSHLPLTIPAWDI
# T7 sequence (P41231 whole entry): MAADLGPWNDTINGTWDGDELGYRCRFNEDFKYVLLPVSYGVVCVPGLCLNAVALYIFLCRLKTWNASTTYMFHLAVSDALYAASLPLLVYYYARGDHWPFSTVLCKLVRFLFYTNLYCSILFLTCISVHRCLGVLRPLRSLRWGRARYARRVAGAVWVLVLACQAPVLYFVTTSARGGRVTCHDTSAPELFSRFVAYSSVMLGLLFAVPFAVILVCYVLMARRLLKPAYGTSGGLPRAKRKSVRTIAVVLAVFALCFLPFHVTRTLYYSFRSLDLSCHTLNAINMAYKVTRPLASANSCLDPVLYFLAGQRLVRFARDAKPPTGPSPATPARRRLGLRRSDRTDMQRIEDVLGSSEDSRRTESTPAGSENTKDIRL
# T5 sequence (P41597 whole entry): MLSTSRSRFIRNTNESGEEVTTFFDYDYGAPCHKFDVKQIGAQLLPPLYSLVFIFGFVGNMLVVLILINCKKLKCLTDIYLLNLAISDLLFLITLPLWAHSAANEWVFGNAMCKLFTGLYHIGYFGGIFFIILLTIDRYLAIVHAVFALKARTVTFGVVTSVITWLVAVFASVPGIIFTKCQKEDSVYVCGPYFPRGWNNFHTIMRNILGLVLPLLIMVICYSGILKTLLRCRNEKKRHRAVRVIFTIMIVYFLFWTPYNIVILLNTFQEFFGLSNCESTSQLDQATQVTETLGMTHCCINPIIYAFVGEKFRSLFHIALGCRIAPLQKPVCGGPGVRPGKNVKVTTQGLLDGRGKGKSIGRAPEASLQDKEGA
# T4 sequence (P25103 whole entry): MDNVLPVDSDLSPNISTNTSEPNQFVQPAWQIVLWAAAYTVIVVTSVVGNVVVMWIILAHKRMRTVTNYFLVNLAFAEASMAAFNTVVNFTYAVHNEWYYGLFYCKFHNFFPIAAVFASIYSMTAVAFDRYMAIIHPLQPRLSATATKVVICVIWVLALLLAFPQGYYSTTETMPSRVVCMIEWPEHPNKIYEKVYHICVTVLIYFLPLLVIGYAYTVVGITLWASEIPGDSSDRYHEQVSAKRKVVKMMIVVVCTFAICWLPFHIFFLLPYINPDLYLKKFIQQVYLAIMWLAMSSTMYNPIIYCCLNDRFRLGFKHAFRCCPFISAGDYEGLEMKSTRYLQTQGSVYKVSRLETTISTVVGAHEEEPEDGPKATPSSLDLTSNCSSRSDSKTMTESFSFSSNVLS
# T1 sequence (P28223 whole entry, the tested form may be a part): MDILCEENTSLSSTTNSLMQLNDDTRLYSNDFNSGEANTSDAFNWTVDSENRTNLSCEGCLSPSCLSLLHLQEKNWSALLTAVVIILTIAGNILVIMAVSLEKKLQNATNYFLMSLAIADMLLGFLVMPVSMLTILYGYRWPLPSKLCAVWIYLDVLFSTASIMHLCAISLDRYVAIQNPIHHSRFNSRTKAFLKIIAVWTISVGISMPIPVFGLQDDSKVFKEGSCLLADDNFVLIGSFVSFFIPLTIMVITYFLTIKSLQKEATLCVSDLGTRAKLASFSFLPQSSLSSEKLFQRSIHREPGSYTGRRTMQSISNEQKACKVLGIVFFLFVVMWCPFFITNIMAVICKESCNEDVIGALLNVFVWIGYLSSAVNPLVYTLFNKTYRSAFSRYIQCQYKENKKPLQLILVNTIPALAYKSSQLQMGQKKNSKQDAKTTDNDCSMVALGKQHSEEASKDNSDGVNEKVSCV
SMILES,% Antagonist Activity (5HT2A receptor; 1 uM),% Antagonist Activity (5HT2A receptor; 10 uM),% Agonist Activity (168 GPCRs [1]; Conc 1 uM),% Antagonist Activity (168 GPCRs [1]; Conc 1 uM),% Agonist Activity (168 GPCRs [1]; Conc 10 uM),% Antagonist Activity (168 GPCRs [1]; Conc 10 uM),% Agonist Activity (168 GPCRs [2]; Conc 1 uM),% Antagonist Activity (168 GPCRs [2]; Conc 1 uM),% Agonist Activity (168 GPCRs [2]; Conc 10 uM),% Antagonist Activity (168 GPCRs [2]; Conc 10 uM),% Agonist Activity (168 GPCRs [3]; Conc 1 uM),% Antagonist Activity (168 GPCRs [3]; Conc 1 uM),% Agonist Activity (168 GPCRs [3]; Conc 10 uM),% Antagonist Activity (168 GPCRs [3]; Conc 10 uM),"% Agonist Activity (168 GPCRs [4]; CCR2, 1 uM)","% Antagonist Activity (168 GPCRs [4]; CCR2, 1 uM)","% Agonist Activity (168 GPCRs [4]; CCR2, 10 uM)","% Antagonist Activity (168 GPCRs [4]; CCR2, 10 uM)","% Agonist Activity (168 GPCRs [5]; BRS3, 1 uM)","% Antagonist Activity (168 GPCRs [5]; BRS3, 1 uM)",other results
"CNC(C)Cc1ccc2c(c1)OCO2 (stereo not drawn) [MDMA, 3,4-Methylenedioxy methamphetamine, reference compound]",5.1%,3%,0.7%,-9.8%,1.1%,-12.8%,-3.2%,17.7%,-5.5%,20.8%,-0.2%,4.4%,-0.1%,-2.1%,0.5%,9.2%,0.7%,11.1%,2.6%,7.9%,"% Agonist Activity (168 GPCRs [5]; BRS3, 10 uM): -3%; % Antagonist Activity (168 GPCRs [5]; BRS3, 10 uM): 3.8%; % Agonist Activity (168 GPCRs [6]; Conc 1 uM): 6.6%; % Antagonist Activity (168 GPCRs [6]; Conc 1 uM): 11.5%; % Agonist Activity (168 GPCRs [6]; Conc 10 uM): 7.8%; % Antagonist Activity (168 GPCRs [6]; Conc 10 uM): 9.6%; % Agonist Activity (168 GPCRs [7]; GPR1, 1 uM): 0.7%; % Antagonist Activity (168 GPCRs [7]; GPR1, 1 uM): 7.6%; % Agonist Activity (168 GPCRs [7]; GPR1, 10 uM): 0.2%; % Antagonist Activity (168 GPCRs [7]; GPR1, 10 uM): 11.9%"
CNC(C)C(=O)c1ccc2c(c1)OCO2 (stereo not drawn) [methylone],-7.9%,-2.7%,-1.4%,12.7%,-3.1%,-4.4%,-4.6%,32%,-5.6%,27.1%,-3.9%,15.2%,-4.4%,8.9%,-0.4%,2%,-0.5%,4.9%,4.5%,18.3%,"% Agonist Activity (168 GPCRs [5]; BRS3, 10 uM): -4.6%; % Antagonist Activity (168 GPCRs [5]; BRS3, 10 uM): 10.1%; % Agonist Activity (168 GPCRs [6]; Conc 1 uM): -2.1%; % Antagonist Activity (168 GPCRs [6]; Conc 1 uM): 5.4%; % Agonist Activity (168 GPCRs [6]; Conc 10 uM): -2.7%; % Antagonist Activity (168 GPCRs [6]; Conc 10 uM): 1.8%; % Agonist Activity (168 GPCRs [7]; GPR1, 1 uM): -0.5%; % Antagonist Activity (168 GPCRs [7]; GPR1, 1 uM): 4.4%; % Agonist Activity (168 GPCRs [7]; GPR1, 10 uM): -0.7%; % Antagonist Activity (168 GPCRs [7]; GPR1, 10 uM): 7.4%"
